Results from patent publication US20160015064A1, “COMPOUNDS, COMPOSITIONS, AND METHODS FOR MODULATING SWEET TASTE” (CHROMOCELL CORPORATION, priority 2013, published 2016).

What was measured:
[1] = tested on: perception of the sweet taste in an aqueous environment; experiment: Trained descriptive analysis (DA) panel, sweet attribute; type: in vivo, humans; settings: for DA Panel Average Sweetness Intensity Score (on 15 cm scale) / Fold enhancement of sweetness perception as compared to control sweetener solution / Perceived inherent sweetness compared to solubilizing agent alone / Perceived sweetness compared to solubilizing agent alone (inherent sweetness): 35 ppm compound plus solubilizing agent; for Perceived inherent sweetness compared to solubilizing agent alone: citric acid-citrate solution pH 3; for Compound effects beyond the additive effect of inherent sweetness: 4% fructose and 8% sucrose; for Compound effects beyond the additive effect of inherent sweetness / Perceived sweetness vs control sweetener solutions (FIG. 2) / Perceived sweetness vs control sweetener solutions (FIG. 1): 35 ppm; for Perceived sweetness vs control sweetener solutions (FIG. 2) / Perceived sweetness vs control sweetener solutions (FIG. 1): fructose and sucrose, ** p<0.01; for Perceived sweetness compared to solubilizing agent alone (inherent sweetness): water pH 7
Method: The effect of the test compounds on the perception of the sweet taste in an aqueous environment, in the absence or presence of carbohydrate sweeteners, was evaluated using a descriptive analysis methodology with a group of trained panelists, as follows.
Candidate panelists were recruited, with prescreening and personal interviews, and were assessed for their ability to detect, recognize and differentiate basic taste attributes or mixtures thereof as part of a standardized acuity test. These candidate panelists were also assessed for their innate ability to identify flavors, and to rank on intensity scales. Other senses such as smell and vision were also included as part of the assessment. Candidates also were screened for their ability to use the language to describe and articulate ideas.
Selected candidates proceeded to training as a group in three phases: (1) Lexicon development, (2) Concept alignment, and (3) Scaling descriptors. During lexicon development, panelists evaluated products appropriate for use in the study to generate and align on terms describing the flavor, taste, aromatic, trigeminal, and temporal attributes. During concept alignment, the panel evaluated the products mentioned above to clarify and confirm the attributes that were generated during lexicon development using reference standards that appropriately define each attribute; these are either physical references (e.g. sucrose solutions) or verbal descriptions (e.g. overall flavor). Product terms and concepts were validated during this portion of the study.
In the last phase, scaling descriptors, the panel participated in a series of exercises focused on ordering and ranking samples according to relative attribute intensity, measuring attribute intensity using a defined length of line scale. Whenever possible, different levels or concentration of references were used as anchors to facilitate use of the scale. Panelists were provided with blinded references at this stage to evaluate their understanding and perception of the scale.
The panel used in this example was trained to reference sweet attributes in an absolute manner, such that a particular concentration of sweetener is always measured by the panelists at the same point using a 15 cm line scale where each cm represents a 1% increase in sucrose to cover the range of 0% to 15% sucrose. For the rest of the attributes, the panel was trained using a hybrid approach between descriptive analysis methods (e.g. quantitative descriptive analysis, the sensory spectrum, etc.) well-known to those skilled in the art.
The trained panel was then used for a descriptive analysis assessment for Compounds 1, 2 and 3 in aqueous solutions at pH 3 and pH 7. Each of the three compounds was tested at 35 ppm in sucrose and fructose sweeteners. In addition, Compounds 1, 2 and 3 were also examined in water at pH 3 and pH 7 to assess for any inherent sweetness.
The aqueous sweetener solutions were prepared by adding, fructose or sucrose (by weight), to water to achieve the desired concentration. Aqueous sucrose solutions at pH 3 were buffered using a final concentration of 0.096% Citric Acid plus 0.036% Sodium Citrate while aqueous fructose solutions at pH 3 were buffered using a final concentration of 0.06% Citric Acid and 0.0225% Sodium Citrate.
Compounds were first prepared as a […] concentrated stock solution in 100% ethanol. These concentrated stocks were then added to the aqueous sweetener solutions to result in a final ethanol concentration of 0.2%. In addition to compounds, a solubilizing agent at a final concentration of 0.02% was added to the aqueous sweetener solutions. Control samples were also balanced with 0.2% ethanol and in certain cases 0.02% solubilizing agent.
Both control (aqueous sweetener solutions without compound) and variant (aqueous sweetener solutions with compound) samples were blinded and randomized (by sweetener and pH blocks). […]

[2] = tested on: perception of sweet taste, in an aqueous solution; experiment: Inherent sweetness assessment, difference from control sip and spit method; type: in vivo, humans; settings: no sweetener
Method: The aqueous sucrose solutions were prepared by adding, sucrose (by weight), to water to achieve the desired concentration.
Compounds were first prepared as a 500-fold concentrated stock solution in 100% ethanol. These concentrated stocks were then added to water to result in a final ethanol concentration of 0.2%. The control (including positive control) samples were also normalized to 0.2% ethanol. This level of ethanol was not seen to contribute any perceived sweetness.
The intrinsic effect of test compounds on the perception of sweet taste, in an aqueous solution, in humans was evaluated using a difference from control “sip and spit” method employing a verbal category scale.
In this method, panelists (n=12) evaluate one pair of samples at a time—one sample contains water plus compound (i.e. test) while the other contains water without compound (i.e. control). Panelists were instructed to first taste the un-blinded control followed by the test sample and asked to rate the size of sweetness difference between the test and control sample, using a 6 point verbal category scale:
Verbal category scale • No difference • Slight difference • Slight/moderate difference • Moderate difference • Moderate/large difference • Very large difference
4 blinded controls comprising of one negative control (0% sucrose) and 3 positive control samples (0.5% sucrose, 1% sucrose and 2% sucrose) were also included as part of the test to evaluate the ability of panelists to rank the difference in sweetness perception between 0.5% sucrose, 1% sucrose and 2% sucrose compared to 0% sucrose control.
Panelists were instructed not to eat or drink (except water) for at least 1 h before the test. During the test, panelists were instructed to sip each sample, swirl it around their mouth and then expectorate. Panelists cleansed their palates by rinsing with water, eating a cracker and waiting for an interval of about 5 minutes. All samples were tasted at ambient temperatures.
The verbal category response for each test sample was converted into an integer numerical value, from 1 to 6 (e.g. no difference=1 and very large difference=6). Total numbers of panelist responses per integer value were plotted as a histogram. An assessment was then made, comparing mean, mode of the numerical value, and the distribution of the histogram plots, for test samples as compared to that of the positive (0.5% sucrose, 1% sucrose and 2% sucrose) and negative control (0% sucrose) sample. Inherent sweetness levels are then correlated to the positive controls as discrete bins: • Bin 1: 0% sucrose • Bin 2: >0% sucrose—<0.5% sucrose • Bin 3: 0.5% sucrose • Bin 4: >0.5% sucrose—<1% sucrose • Bin 5: 1% sucrose • Bin 6: >1% sucrose—<2% sucrose • Bin 7: 2% sucrose

[3] = citric acid-citrate solution pH 3, no sweetener
[4] = water pH 7, no sweetener, 1 cm = 1% sucrose

Row | SMILES | DA Panel Average Sweetness Intensity Score (on 15 cm scale) ([1]; 4% fructose, pH 3) | Fold enhancement of sweetness perception as compared to control sweetener solution ([1]; 4% fructose, pH 3) | DA Panel Average Sweetness Intensity Score (on 15 cm scale) ([1]; 4% fructose, pH 7) | Fold enhancement of sweetness perception as compared to control sweetener solution ([1]; 4% fructose, pH 7) | DA Panel Average Sweetness Intensity Score (on 15 cm scale) ([1]; 8% sucrose, pH 3) | Fold enhancement of sweetness perception as compared to control sweetener solution ([1]; 8% sucrose, pH 3) | DA Panel Average Sweetness Intensity Score (on 15 cm scale) ([1]; 8% sucrose, pH 7) | Fold enhancement of sweetness perception as compared to control sweetener solution ([1]; 8% sucrose, pH 7) | DA Panel Average Sweetness Intensity Score (on 15 cm scale) [1, 3] | Perceived inherent sweetness compared to solubilizing agent alone [1] | Compound effects beyond the additive effect of inherent sweetness ([1]; pH 3) | Perceived sweetness vs control sweetener solutions (FIG. 2) ([1]; pH 3) | Compound effects beyond the additive effect of inherent sweetness ([1]; pH 7) | Perceived sweetness vs control sweetener solutions (FIG. 1) ([1]; pH 7) | DA Panel Average Sweetness Intensity Score (on 15 cm scale) [1, 4] | Perceived sweetness compared to solubilizing agent alone (inherent sweetness) [1] | Correlated Inherent Sweetness Assessment ([2]; compound 10 ppm in water) | Correlated Inherent Sweetness Assessment ([2]; compound 15 ppm in water)
1 | COc1ccc(C2CC(=O)c3c(O)cccc3O2)cc1O (single isomer, unassigned) [Compound 3, 5-hydroxy-2-(3-hydroxy-4-methoxyphenyl)chroman-4-one] | 7.09 | 1.41X | 7.08 | 1.62X | 9.23 | 1.28X | 10.22 | 1.36X | 1.58 | do not show further significant increase in perceived inherent sweetness | super-additive effects | significant increase in perceived sweetness | super-additive effects | significant increase in perceived sweetness | 1.58 | further increase in perceived sweetness | 0.5%-1% sucrose | 1% sucrose
2 | COc1ccc(C2CC(=O)c3c(O)cccc3O2)cc1O (single isomer, unassigned) [Compound 2, 5-hydroxy-2-(3-hydroxy-4-methoxyphenyl)chroman-4-one] | 6.93 | 1.38X | 7.08 | 1.62X | 9.21 | 1.28X | 10.15 | 1.35X | 1.27 | do not show further significant increase in perceived inherent sweetness | super-additive effects | significant increase in perceived sweetness | super-additive effects | significant increase in perceived sweetness | 1.76 | further increase in perceived sweetness | 0.5%-1% sucrose | 1% sucrose
